Measurements taken from patent US20150164910A1, “ANTIVIRAL COMPOUNDS AND METHODS OF USE” (The Regents of the University of Califonia, priority 2012, published 2015).

Key:
[1] = system: CVB3-H3; assay: Plaque reduction assay, CVB3-H3 in HeLa-RW cells; type: cell-based, coxsackievirus B3; settings: compound added 30 min before infection, CVB3-H3 MOI 1, HeLa-RW, 6 hours; log10(titer with DMSO only/titer with inhibitor)
[2] = system: eGFP-expressing recombinant CVB3; type: cell-based, coxsackievirus B3; settings: for % of eGFP + cells, 0 Hr: compound added 0 hr post infection at its peak activity concentration, DMSO 26.0; for % of eGFP + cells, 0 Hr / % of eGFP + cells, 1 Hr / % of eGFP + cells, 2 Hr: read 6 hr post infection; for % of eGFP + cells, 1 Hr: compound added 1 hr post infection at its peak activity concentration, DMSO 23.7; for % of eGFP + cells, 2 Hr: compound added 2 hr post infection at its peak activity concentration, DMSO 24.8; for Inhibition of infected cells: eGFP-CVB3 m.o.i=1, compound added at time of infection, 6 hr post infection, 1-(% eGFP+ cells with compound/% with DMSO only)
[3] = system: coxsackievirus B3 (CVB3); assay: Cell viability assay, prevention of cell death caused by CVB3 infection; type: cell-based; settings: for Selectivity index: 50% Cytotoxic concentration/50% activity concentration; for IC50 / EC (peak activity): Enterovirus B; for IC50: read-out: 50% activity concentration (IC50); for EC (peak activity): HeLa-RW cells and CVB3 at low multiplicity of infection, read-out: Peak Activity Conc.
Experimental: (§1) Procedure: Enteroviruses rapidly cause cell death, and a cell viability assay was used to examine the cytotoxicity of each compound and to identify the concentration needed to prevent cell death caused by coxsackievirus B3 (CVB3) infection.
(§2) Compounds were diluted two-fold and added to wells of 384 well plate. HeLa-RW cells were then added (cytotoxicity testing), or cells and CVB3 were added to provide a low multiplicity of infection to determine concentration of peak activity or 50% maximal concentration. Selectivity index is defined as the 50% Cytotoxic concentration/50% activity concentration

[4] = system: poliovirus 1 (PV-1); type: cell-based; parameters: dose or concentration left out as unconfirmed; settings: HeLa cells, MOI of 1, six hours (FIG. 6)
[5] = system: poliovirus-3 (PV-3); type: cell-based; parameters: dose or concentration left out as unconfirmed; settings: HeLa cells, MOI of 1, six hours (FIG. 6)
[6] = system: CVB3; assay: Time of addition experiment, CVB3 in HeLa cells; type: cell-based, coxsackievirus B3
[7] = system: HeLa-RW cells; type: cell-based; settings: in words
Experimental: as §1, §2

[8] = system: coxsackievirus B3 (CVB3); assay: Cell viability assay, prevention of cell death caused by CVB3 infection; type: cell-based; settings: Enterovirus B, HeLa, read-out: 50% effective concentration (EC50), CVB3 replication
[9] = system: viral capsid proteins of CVB3; assay: Immunoblot detection of CVB3 viral capsid protein; type: cell-based, coxsackievirus B3; settings: six hours after infection with CVB3; compound added 30 minutes before inoculation; 10 μM fluoxetine in FIG. 2

| SMILES | Log10 reduction of virus titer [1] | % of eGFP + cells, 0 Hr [2] [%] | % of eGFP + cells, 1 Hr [2] [%] | % of eGFP + cells, 2 Hr [2] [%] | Inhibition of infected cells [2] [%] | Selectivity index [3] | IC50 [3] [nM] | EC (peak activity) [3] [µM] | titer of virus produced, PV-1 [4] | titer of virus produced, PV-3 [5] | activity when added 2 hours after infection begins ([6]; virus produced six hours after infection (FIG. 7)) | cytotoxicity to HeLa cells [7] | CVB3 replication, compound added 1 hour or more after inoculation ([6]; added 1 hour or more after inoculation (FIG. 7)) | CVB3 replication, compound added prior to inoculation ([6]; added prior to inoculation of cultures (FIG. 7)) | EC50 [8] [nM] | viral capsid protein detected by immunoblot [9] |
| --- | --- | --- | --- | --- | --- | --- | --- | --- | --- | --- | --- | --- | --- | --- | --- | --- |
| CC(C)n1ncc2c(C(=O)Nc3ccccc3F)cc(-c3cccs3)nc21 [Compound 3, N-(2-Fluorophenyl)-1-isopropyl-6-(2-thienyl)-1H-pyrazolo [3,4-b]pyridine-4-carboxamide] | 4.5 | 0.0 | 0.0 | 0.0 | 100 | 175 | 1140 | 3.13 | marked reduction | marked reduction | equivalently active | – | – | – | – | – |
| Cl.OC(c1cc(C(F)(F)F)nc2c(C(F)(F)F)cccc12)C1CCCCN1 (stereo not shown) [Compound 22, [2,8-Bis (trifluoromethyl)-4-quinolinyl](2-piperidinyl)methanol hydrochloride (1:1), reference compound] | 4.0 | 21.1 | 18.5 | 27.9 | 100 | 6 | 1600 | 3.13 | – | – | – | – | – | – | – | – |
| CN1c2ccccc2C(=O)NC1c1cc2ccccc2nc1N1CCOCC1 (stereo not shown) [Compound 23, 1-Methyl-2-[2-(4-morpholinyl)-3-quinolinyl]-2,3-dihydro-4(1H)-quinazolinone] | 4.4 | 0.1 | 3.8 | 0.0 | 100 | 54 | 920 | 3.13 | – | – | – | – | – | – | – | – |
| Cc1ccc(-c2cc(C(=O)NN)c3ccccc3n2)s1 [Compound 25, 2-(5-Methyl-2-thienyl)-4-quinoline-carbohydrazide] | 3.7 | 0.1 | 0.1 | 0.0 | 100 | 32 | 780 | 3.13 | – | – | – | – | – | – | – | – |
| O=C(Nc1nc(CN2CCCC2)cs1)c1cc(-c2cccs2)nc2ccccc12 [Compound 33, N-[4-(1-Pyrrolidinylmethyl)-1,3-thiazol-2-yl)-2-(2-thienyl)-4-quinoline-carboxamide] | 4.5 | 0.0 | 0.0 | 0.0 | 100 | 44 | 570 | 3.13 | – | – | – | – | – | – | – | – |
| N#Cc1ccc(OCc2nc3ccccc3n2-c2ccccc2)cc1 [Compound 42, 4-[(1-Phenyl-1H-benzimidazol-2-yl)methoxy) benzonitrile] | 4.5 | 0.0 | 0.1 | 0.0 | 100 | 8 | 3000 | 6.25 | – | – | – | – | – | – | – | – |
| COc1ccc(C(=O)N2CCC(C(=O)c3ccc4c(c3)OCCO4)CC2)cc1F [Compound 45, 2,3-Dihydro-1,4-benzodioxin-6-yl [1-(3-fluoro-4-methoxybenzoyl)-4-piperidinyl] methanone] | 2.0 | 8.9 | 17.0 | 20.0 | 82.1 | 125 | 200 | 1.56 | – | – | – | minimally cytotoxic | less potent | markedly reduced | 200 | – |
| COc1ccc(N(Cc2ccc(F)cc2)C(=O)c2ccco2)cc1 [Compound 57, N-(4-Fluorobenzyl)-N-(4-methoxyphenyl)-2-furamide] | 4.3 | 0.0 | 0.0 | 0.0 | 99.7 | 16 | 3130 | 6.25 | – | – | – | – | – | – | – | – |
| C/C(=C\c1ccccc1)C1NC(N)=Nc2nc3ccccc3n21 (stereo not shown) [Compound 68, 4-[(1E)-1-Phenyl-1-propen-2-yl)-1,4-dihydro[1,3,5] triazino[1,2-a]benzimidazol-2-amine] | 3.7 | 0.0 | 0.0 | 0.0 | 100 | 21 | 1210 | 3.13 | – | – | – | – | – | – | – | – |
| NCCC(Oc1ccc(C(F)(F)F)cc1)c1ccccc1 (stereo not shown) [Compound 74, 3-Phenyl-3-[4-(trifluoromethyl)phenoxy]-1-propanamine] | 4.7 | 0.0 | 0.0 | 0.0 | 100 | 10 | 2530 | 6.25 | – | – | – | – | – | – | – | no viral protein is detected |
